Laboratory results from patent publication US20100099564A1, “HERBICIDE COMBINATION COMPRISING DIMETHOXYTRIAZINYL-SUBSTITUTED DIFLUOROMETHANESULFONYLANILIDES” (BAYER CROPSCIENCE AG, priority 2008, published 2010).
Like-named read-outs stand apart in the source and are kept apart here.

What was measured:
Assay type in all cases: in vivo
[1] = tested on: Lolium multiflorum (LOLMU); assay: Post-emergence action, greenhouse pot test, visual scoring: LOLMU
Method: (§1) Seeds or rhizome pieces of mono- and dicotyledonous harmful and useful plants were placed in peat pots (diameter 4 cm) filled with sandy loam and then covered with soil. The pots were kept in a greenhouse under optimum conditions. In addition, harmful plants encountered in paddy rice cultivation were cultivated in pots with a water level 2 cm above the soil surface.
(§2) About three weeks after the start of the cultivation, the test plants were treated at the 2- to 3-leaf stage. The herbicides, formulated as powder or liquid concentrates, were, either alone or in the combinations according to the invention, sprayed in various dosages on to the green parts of the plants using an application rate of 600 l of water/ha (converted). For further cultivation of the plants, the pots were then again kept under optimum conditions in a greenhouse.
(§3) The visual scoring of the herbicidal effects was carried out in intervals up to 21 days after the treatment. Scoring was carried out in percent in comparison to the untreated control plants. 0%=no herbicidal activity, 100%=complete herbicidal activity=complete kill.
(§4) The percentages from the treatments with the herbicides alone (=individual application) and with the combinations according to the invention (=mixtures) were employed to calculate interactions using the method of Colby. When the observed efficacies of the mixtures exceed the formal sum of the values of the tests with individual applications, they also exceed the expected value according to Colby, which is calculated using the formula below (cf. S. R. Colby; in Weeds 15 (1967) pp. 20 to 22):
(§5) Here: • A, B=activity of components A and B in percent at a dosage of a and b g of ai/ha (=gramm of active substance per hectare), respectively. • E=expected value in % at a dosage of a+b g of ai/ha.
(§6) The combinations according to the invention of herbicides from group (A) with herbicides from group (B) were tested on a broad spectrum of important harmful plants (weed grasses, broad-leaved weeds/Cyperaceae) and useful plants: Triticum aestivum (TRZAS), Stellaria media (STEME), Lolium multiflorum (LOLMU), Veronica persica (VERPE), Alopecurus myosuroides (ALOMY), Matricaria inodora (MATIN), Brassica napus (BRSNW), Viola tricolor (VIOTR), Avena fatua (AVEFA), Amaranthus retroflexus (AMARE), Zea mays (ZEAMX), Pharbitis purpurea (PHBPU), Setaria viridis (SETVI), Fallopia (ex Polygonum) convolvulus (POLCO), Echinochloa crusgaffi (ECHCG), Abuthilon theophrasti (ABUTH), Cyperus esculentus (CYPES), Oryza sativa (ORYSA).
(§7) Of particular interest are the results shown in the tables (Tab.) below, where the following key is used: • (1) EPPO code (former Bayer code) for the treated plant (see above) • (2) Time of scoring: DAT (days after treatment) • (3) Component A tested (identifying number) • (4) Component B tested (identifying number) • (5) Dosage component A [g of ai/ha] • (6) Dosage component B [g of ai/ha] • (7) % activity found • (8) E value (calculated according to Colby; see above) • (9) Comments: “SYNERGY” =synergistic interaction (E value<% activity found); “SAFENING”=safener action on useful plant (E value>% activity found)

[2] = tested on: Triticum aestivum (TRZAS); assay: Post-emergence action, greenhouse pot test, visual scoring: TRZAS
Method: as §1, §2, §3, §4, §5, §6, §7

[3] = tested on: Setaria viridis (SETVI); assay: Post-emergence action, greenhouse pot test, visual scoring: SETVI; conditions: Setaria viridis, post-emergence, 504 h, 21 DAT, read-out: % activity found
Method: as §1, §2, §3, §4, §5, §6, §7

[4] = tested on: Alopecurus myosuroides (ALOMY); assay: Post-emergence action, greenhouse pot test, visual scoring: ALOMY; conditions: Alopecurus myosuroides, post-emergence, read-out: % activity found; for pest or weed control at 40 g/ha: B 40 g of ai/ha
Method: as §1, §2, §3, §4, §5

[5] = tested on: Cyperus esculentus (CYPES); assay: Post-emergence action, greenhouse pot test, visual scoring: CYPES; conditions: 21 DAT
Method: as §1, §2, §3, §4, §5

[6] = tested on: Zea mays (ZEAMX); assay: Post-emergence action, greenhouse pot test, visual scoring: ZEAMX; conditions: for plant injury at 40 g/ha: B 40 g of ai/ha; for plant injury at 700 g/ha: B 700 g of ai/ha; for plant injury at 2100 g/ha: B 2100 g of ai/ha
Method: as §1, §2, §3, §4, §5, §6, §7

[7] = tested on: Oryza sativa (ORYSA); assay: Post-emergence action, greenhouse pot test, visual scoring: ORYSA
Method: as §1, §2, §3, §4, §5, §6, §7

[8] = tested on: Avena fatua (AVEFA); assay: Post-emergence action, greenhouse pot test, visual scoring: AVEFA
Method: as §1, §2, §3, §4, §5, §6, §7

[9] = tested on: Viola tricolor (VIOTR); assay: Post-emergence action, greenhouse pot test, visual scoring: VIOTR; conditions: for (7) % activity found: rate (6) 2
Method: as §1, §2, §3, §4, §5, §6, §7

[10] = tested on: Fallopia (ex Polygonum) convolvulus (POLCO); assay: Post-emergence action, greenhouse pot test, visual scoring: POLCO; conditions: 21 DAT
Method: as §1, §2, §3, §4, §5, §6, §7

[11] = tested on: Pharbitis purpurea (PHBPU); assay: Post-emergence action, greenhouse pot test, visual scoring: PHBPU; conditions: 21 DAT
Method: as §1, §2, §3, §4, §5, §6, §7

[12] = tested on: Matricaria inodora (MATIN); assay: Post-emergence action, greenhouse pot test, visual scoring: MATIN
Method: as §1, §2, §3, §4, §5

[13] = tested on: Veronica persica (VERPE); assay: Post-emergence action, greenhouse pot test, visual scoring: VERPE; conditions: 21 DAT
Method: as §1, §2, §3, §4, §5, §6, §7

[14] = Zea mays, post-emergence, 240 h, 10 DAT, read-out: % activity found
[15] = Zea mays, post-emergence, 504 h, 21 DAT, read-out: % activity found

## O=C(Nc1ccc(F)cc1F)c1cccnc1Oc1cccc(C(F)(F)F)c1 [B3-1, N-(2,4-difluorophenyl)-2-[3-(trifluoromethyl)phenoxy]-3-pyridinecarboxamide]
[1]; 21 DAT, B 120 g of ai/ha
  % activity found: 30%
[2]; Triticum aestivum, post-emergence, 240 h, 10 DAT, B 40 g of ai/ha, read-out: % activity found
  plant injury at 40 g/ha: 20%
[3]; B 40 g of ai/ha
  pest or weed control at 40 g/ha: 60%
[4]; 240 h, 10 DAT
  pest or weed control at 40 g/ha: 40%
[4]; 504 h, 21 DAT
  pest or weed control at 40 g/ha: 10%
[4]; 504 h, 21 DAT, B 120 g of ai/ha
  pest or weed control at 120 g/ha: 20%
[5]; B 40 g of ai/ha
  % activity found: 0%
[5]; B 120 g of ai/ha
  % activity found: 0%
[6]; [14]
  plant injury at 40 g/ha: 40%
[6]; Zea mays, post-emergence, 240 h, 10 DAT, B 120 g of ai/ha, read-out: % activity found
  plant injury at 120 g/ha: 40%
[6]; [15]
  plant injury at 40 g/ha: 30%
[7]; Oryza sativa, post-emergence, 504 h, 21 DAT, B 40 g of ai/ha, read-out: % activity found
  plant injury at 40 g/ha: 30%
[7]; Oryza sativa, post-emergence, 504 h, 21 DAT, B 120 g of ai/ha, read-out: % activity found
  plant injury at 120 g/ha: 50%

## CCC(=O)Nc1ccc(Cl)c(Cl)c1 [B3-8, N-(3,4-dichlorophenyl)propanamide]
[8]; 10 DAT, B 700 g of ai/ha
  % activity found: 20%
[8]; 21 DAT, B 700 g of ai/ha
  % activity found: 0%
[8]; 21 DAT, B 2100 g of ai/ha
  % activity found: 10%
[1]; 10 DAT, B 700 g of ai/ha
  % activity found: 0%
[2]; Triticum aestivum, post-emergence, 504 h, 21 DAT, B 700 g of ai/ha, read-out: % activity found
  plant injury at 700 g/ha: 10%
[3]; B 2100 g of ai/ha
  pest or weed control at 2100 g/ha: 80%
[9]; 21 DAT, B 700 g of ai/ha
  % activity found: 60%
[9]; 21 DAT, B 2100 g of ai/ha
  % activity found: 70%
[10]; B 700 g of ai/ha
  % activity found: 50%
[4]; 504 h, 21 DAT, B 700 g of ai/ha
  pest or weed control at 700 g/ha: 0%
[4]; 504 h, 21 DAT, B 2100 g of ai/ha
  pest or weed control at 2100 g/ha: 20%
[5]; B 700 g of ai/ha
  % activity found: 0%
[5]; B 2100 g of ai/ha
  % activity found: 0%
[11]; B 2100 g of ai/ha
  % activity found: 40%
[12]; 10 DAT, B 700 g of ai/ha
  % activity found: 0%
[12]; 10 DAT, B 2100 g of ai/ha
  % activity found: 0%
[12]; 21 DAT, B 700 g of ai/ha
  % activity found: 0%
[12]; 21 DAT, B 2100 g of ai/ha
  % activity found: 0%
[6]; [14]
  plant injury at 700 g/ha: 0%
  plant injury at 2100 g/ha: 0%
[6]; [15]
  plant injury at 700 g/ha: 0%
  plant injury at 2100 g/ha: 0%
[7]; Oryza sativa, post-emergence, 504 h, 21 DAT, B 700 g of ai/ha, read-out: % activity found
  plant injury at 700 g/ha: 0%
[7]; Oryza sativa, post-emergence, 504 h, 21 DAT, B 2100 g of ai/ha, read-out: % activity found
  plant injury at 2100 g/ha: 0%

## COCCOc1ccccc1S(=O)(=O)NC(=O)Nc1nc(OC)nc(OC)n1 [B7-6, N-[[(4,6-dimethoxy-1,3,5-triazin-2-yl)amino]carbonyl]-2-(2-methoxyethoxy)benzenesulfonamide]
[1]; 10 DAT, dose (6) 7
  % activity found: 40%
[1]; 21 DAT, dose (6) 7
  % activity found: 10%
[13]; dose (6) 7
  % activity found: 0%
[13]; dose (6) 21
  % activity found: 0%
[5]; dose (6) 21
  % activity found: 0%

## COC(=O)c1ccc(I)cc1S(=O)(=O)NC(=O)Nc1nc(C)nc(OC)n1.[Na] [B7-16, methyl 4-iodo-2-[[[[(4-methoxy-6-methyl-1,3,5-triazin-2-yl)amino]carbonyl]amino]sulfonyl]benzoate sodium salt]
[8]; 21 DAT, rate (6) 2
  (7) % activity found: 10%
[2]; 10 DAT, rate (6) 2
  (7) % activity found: 40%
[2]; 21 DAT, rate (6) 2
  (7) % activity found: 20%
[2]; 21 DAT, rate (6) 6
  (7) % activity found: 60%
[9]; 10 DAT
  (7) % activity found: 70%
[9]; 21 DAT
  (7) % activity found: 90%
[6]; 10 DAT, rate (6) 2
  (7) % activity found: 30%
[6]; 10 DAT, rate (6) 6
  (7) % activity found: 20%
[6]; 21 DAT, rate (6) 2
  (7) % activity found: 0%
[7]; 10 DAT, rate (6) 2
  (7) % activity found: 90%
[7]; 21 DAT, rate (6) 2
  (7) % activity found: 70%

## COC(=O)c1ccc(CNS(C)(=O)=O)cc1S(=O)(=O)NC(=O)Nc1nc(OC)cc(OC)n1 [B7-17, methyl 2-[[[[(4,6-dimethoxy-2-pyrimidinyl)amino]carbonyl]amino]sulfonyl]-4-[[(methylsulfonyl)amino]methyl]benzoate]
[8]; 21 DAT, rate (6) 2
  (7) % activity found: 20%
[8]; 21 DAT, rate (6) 6
  (7) % activity found: 70%
[2]; 10 DAT, rate (6) 2
  (7) % activity found: 40%
[2]; 10 DAT, rate (6) 6
  (7) % activity found: 60%
[2]; 21 DAT, rate (6) 2
  (7) % activity found: 20%
[2]; 21 DAT, rate (6) 6
  (7) % activity found: 70%
[10]; rate (6) 2
  (7) % activity found: 40%
[10]; rate (6) 6
  (7) % activity found: 50%
[6]; 10 DAT, rate (6) 6
  (7) % activity found: 40%
[7]; 10 DAT, rate (6) 6
  (7) % activity found: 90%

## COC(=O)c1csc(C)c1S(=O)(=O)NC(=O)n1nc(OC)n(C)c1=O [B8-3, methyl 4-[[[(4,5-dihydro-3-methoxy-4-methyl-5-oxo-1H-1,2,4-triazol-1-yl)carbonyl]amino]sulfonyl]-5-methyl-3-thiophenecarboxylate]
[8]; 21 DAT, rate (6) 0.7
  (7) % activity found: 50%
[2]; 21 DAT, rate (6) 2
  (7) % activity found: 30%
[13]; rate (6) 2
  (7) % activity found: 40%
[5]; rate (6) 0.7
  (7) % activity found: 0%
[6]; 21 DAT, rate (6) 2
  (7) % activity found: 20%
[7]; 10 DAT, rate (6) 0.7
  (7) % activity found: 50%
[7]; 10 DAT, rate (6) 2
  (7) % activity found: 70%
[7]; 21 DAT, rate (6) 2
  (7) % activity found: 40%

## COc1cnc(OC)n2nc(NS(=O)(=O)c3c(OCC(F)F)cccc3C(F)(F)F)nc12 [B9-6, 2-(2,2-difluoroethoxy)-N-(5,8-dimethoxy[1,2,4]triazolo[1,5-c]pyrimidin-2-yl)-6-(trifluoromethyl)benzenesulfonamide]
[1]; 21 DAT, rate (6) 5
  (7) % activity found: 20%
[2]; 10 DAT, rate (6) 15
  (7) % activity found: 10%
[2]; 21 DAT, rate (6) 15
  (7) % activity found: 0%
[11]; rate (6) 5
  (7) % activity found: 10%
[11]; rate (6) 15
  (7) % activity found: 30%
[6]; 10 DAT, rate (6) 5
  (7) % activity found: 0%
[6]; 10 DAT, rate (6) 15
  (7) % activity found: 30%
